Structures can show the parent of a compound that is named as a salt. Where two headings read alike, the source gives them in different places.
Legend:
[1] = biological target: normal GABA receptor (wild-type Rdl, cDNA 14.1) (Drosophila melanogaster, UniProt P25123, I283V); test: cell-based; conditions: for Reduction in GABA response (mean (s.d.)): xenopus oocytes
Description: (§1) The cloning of cDNA's from the GABAA locus allows for functional expression of mRNA derived from this and other subunit cDNA templates in various cell types.
(§2) In the Xenopus oocyte expression system, oocytes removed from ovaries of adult Xenopus are arrested at the first meiotic prophase. Because each oocyte is fairly large and has a large nucleus, it is technically easy to inject foreign DNA into the oocyte nucleus. Typically, 20-40 nl is injected through a finely drawn glass capillary. The endogenous Xenopus RNA polymerases transcribe this injected exogenous DNA. Mertz and Gurdon, Proc. Natl. Acad. Sci. USA 74:1502 (1977). The exogenous DNA is assembled into chromatin, but there is no replication of injected duplex DNA in the oocyte. Gargilo and Worcel, J. Mol. Biol., 170:699 (1983); Ryoji and Worcel, Cell 37:21 (1984). Single-stranded DNA (e.g., DNA obtained by cloning in M13 vectors), is converted to duplex form within the oocyte nucleus. The Xenopus oocyte also efficiently translates mRNA injected into its cytoplasm.
(§3) Various studies have shown that this Xenopus expression system is feasible for expression of foreign DNA. Kreig and Melton, EMBO J 4:3464 (1985); Masu et al., Nature 329:836 (1987); Wilson et al., Cell 47:589 (1986); see also, Old and Primrose, Principles of Gene Manipulation, 4th ed. (Blackwell Scientific Publications, Oxford, 1989)(pp. 296-302).
(§4) In the system of the present invention, messenger RNA produced from cDNA template, (both messenger RNA and cDNA template are considered to be part of the present invention), is injected into Xenopus eggs which then express the protein. By patch clamp electrophysiology experiments, one can then determine whether the cell is expressing the protein (measured by electrical impulses) and whether this expression can be altered by the compound of interest.
(§5) Currents were recorded in 96 mM NaCl, 2 mM Kcl, 1.8 mM MgCl2, and 5 mM Hepes. Recordings were made 1-5 days after injection. […] Dieldrin was dissolved in DMSO (dimethylsulfoxide), then diluted to a final concentration of 0.1% DMSO. The single base pair substitution of GCG (alanine) to TCG (serine) was introduced into the sensitive cDNA 14.1 by subcloning in a restriction fragment from the insensitive cDNA. The region containing the mutation was then amplified by PCR from total embryonic RNA from Rdl^R-MD flies and subsequently digested with EcoRV and Acc1. This restriction fragment was then cloned into the sensitive cDNA 14.1 cut with the same enzymes to yield the Ala to Ser mutant construct.
(§6) In order to test the effect of the resistance-associated Ala to Ser mutation, this substitution was introduced into the sensitive cDNA (as discussed above). […] Pharmacological comparisons were made using thirty oocytes injected with each type of RNA.

[2] = biological target: T1, mutant GABA receptor (Ala to Ser mutant Rdl) (Drosophila melanogaster, UniProt P25123, A301S/I283V); test: Two-electrode voltage clamp of Xenopus oocytes expressing Ala to Ser mutant GABA receptor; type: cell-based; conditions: for sensitivity of Ala>Ser mutant compared with wild-type: thirty oocytes with each type of RNA (FIGS. 10b-e); for Reduction in GABA response (mean (s.d.)): xenopus oocytes; for response of mutant channels to GABA and muscimol compared with wild-type channels: Ala to Ser mutant vs wild-type
T1 construct: expressed in transfected cells; host or cells: Xenopus oocytes injected with RNA derived from the Ala to Ser mutant of cDNA 14.1
T1 sequence (P25123 other isoform, or with tags, fused parts or gaps I283V/A301S): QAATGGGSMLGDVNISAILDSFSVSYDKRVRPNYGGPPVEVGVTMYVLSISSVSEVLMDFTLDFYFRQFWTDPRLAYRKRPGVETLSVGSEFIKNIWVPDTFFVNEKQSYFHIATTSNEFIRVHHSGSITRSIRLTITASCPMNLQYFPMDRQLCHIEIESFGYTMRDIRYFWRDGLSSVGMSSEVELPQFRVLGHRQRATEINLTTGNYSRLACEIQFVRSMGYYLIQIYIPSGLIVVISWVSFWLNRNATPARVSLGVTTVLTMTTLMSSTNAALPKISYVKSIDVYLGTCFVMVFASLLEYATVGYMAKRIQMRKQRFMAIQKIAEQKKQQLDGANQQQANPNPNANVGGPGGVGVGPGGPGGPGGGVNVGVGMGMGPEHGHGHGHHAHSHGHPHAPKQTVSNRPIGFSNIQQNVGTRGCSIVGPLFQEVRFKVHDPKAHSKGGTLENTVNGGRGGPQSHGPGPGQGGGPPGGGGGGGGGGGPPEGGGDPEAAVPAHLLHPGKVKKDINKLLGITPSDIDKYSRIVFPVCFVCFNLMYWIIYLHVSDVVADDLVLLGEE
Description: as §1, §2, §3, §4, §5, §6

[3] = test system: mutant GABA receptor (Ala to Ser mutant Rdl); test: as above; type: cell-based, Drosophila melanogaster
Description: as §1, §2, §3, §4, §5, §6

[4] = test system: D. melanogaster; test: Dieldrin contact bioassay, fly mortality in coated vials after 24 hours; type: in vivo; conditions: for mortality at 0.03 mg: Drosophila melanogaster, 24 h, 30 μg dieldrin
Description: More specifically, FIG. 2 depicts the crosses used to rescue cyclodiene insecticide susceptibility via P-element-mediated germline transformation. As depicted, embryos containing an endogenous source of transposase (Δ2,3) were injected with a cosmid carrying a susceptible copy of the gene and a copy of the mini-white eye color gene as a selectable marker. Successful G0 transformants with red eyes (w^+) were subsequently crossed into flies hemizygous for resistance and a deficiency uncovering the resistance gene Df(3L)29A6. These flies carrying the w^+ S insert (transferred DNA) are susceptible to a dose of 30 μg dieldrin, whereas their siblings without the insert are resistant to this dose.
In order to more precisely localize the gene within the 200 kb of DNA isolated from the 66F subregion, new chromosomal rearrangements were induced using γ irradiation and screened for those uncovering the resistance gene. Chromosomal rearrangements were generated by exposing male SS flies with multiply marked third chromosomes (rucuca strain) to 4,000 rads of radiation in a γ radiation (cesium) source, and then outcrossing these R/R (Rdl^R /Rdl^R) females. New rearrangements uncovering resistance were screened for by exposing their progeny at a dose of 30 μg dieldrin, at which only R/Df (Rdl^R /Df) flies will survive (all the expected RS progeny will die at this dose level except for any R/- flies wherein "-" is any new rearrangement uncovering the resistance gene), survivors were crossed to In(3LR)TM3/Sb and maintained as a balanced stock (Df/In(3LR)TM3).
Approximately 50,000 flies were screened. For screening, 20 ml glass scintillation vials were coated internally with 30 μg of dieldrin in acetone and rolled until dry. Twenty to thirty flies per vial were added and mortality was recorded after 24 hours at 25° C..
As both of the cytologically visible rearrangements giving two new recombinant bands on a Southern with probes from cosmid 6 have only one breakpoint within 66F, this cluster of breakpoints which disrupts the gene must therefore mark its location. In order to determine whether cosmid 6 contained a functional copy of the gene for cyclodiene resistance, P-element germline transformation with this cosmid was carried out. Following successful isolation of a w^+ transformant, linkage to the insert to the second chromosome was established after crossing male G0 progeny to a stock bearing markers on the second and third chromosomes (FIG. 2). […]
Entomol., 83:1733, (1990). […] These field-collected and isofemale strains were used in the initial identification of the resistance-associated mutation, but studies of linkage to other restriction-site markers in D. melanogaster were done with isochromsomal lines to ensure that only a single chromosome was being analyzed.

[5] = test system: D. melanogaster; conditions: 30 μg dieldrin, ffrench-Constant et al. 1990, cited from earlier work
[6] = test system: larval central nerve cord of Rdl^R-MD; conditions: dieldrin, 10 μM concentration; Bloomquist et al. 1991; cited from earlier work
[7] = test system: cultured Rdl^R-MD neurons; test: Whole cell patch clamp of cultured Rdl^R-MD neurons; type: cell-based, Drosophila melanogaster; conditions: PTX
[8] = test system: PTX binding sites on the GABA receptor; conditions: cyclodiene-resistant vs susceptible strains; Matsumura et al. 1987; cited from earlier work
[9] = test system: chloride ion channels; conditions: thiocyanate ions vs chloride; cited from earlier work
[10] = read-out: Reduction in GABA response (mean (s.d.))
[11] = wild-type mRNA, voltage clamped at -60 mV

normal GABA receptor (wild-type Rdl, cDNA 14.1), sequence (P25123 other isoform, or with tags, fused parts or gaps I283V): as the sequence (P25123 other isoform, or with tags, fused parts or gaps I283V/A301S) above, with S257A counted along it

In the case of `ClC1=C(Cl)[C@]2(Cl)[C@@H]3[C@@H]4C[C@@H]([C@H]5O[C@@H]45)[C@@H]3[C@@]1(Cl)C2(Cl)Cl` [dieldrin], the solubility ([1]; dissolved in DMSO, diluted to final 0.1% DMSO, concentration above 10 μM not possible) is reported as “limited solubility”, the inhibition at 10 µM [1, 10] is reported as 78% and the inhibition at 10 µM ([1]; read-out: block of the GABA response, 10 μM dieldrin, wild-type "sensitive" cDNA (FIG. 10c)) is reported as greater than 75%. The “Reduction in GABA response (mean (s.d.))” value ([1]; 10 µM) was 80 (6) %, the “block of the GABA response, in words” value ([2]; […] μM dieldrin, insensitive mutant cDNA (FIG. 10e)) was “little effect” and the “sensitivity of expressed chloride ion channels carrying the Ala to Ser mutation” value ([2]; mutation of resistant D. melanogaster) was “insensitivity”. The inhibition at 10 µM [2, 10] was 23%, the “sensitivity of Ala>Ser mutant compared with wild-type” value [2] was “consistently lower sensitivity” and the “Reduction in GABA response (mean (s.d.))” value ([2]; 10 µM) was 12 (11) %. For the same compound, the “loss of sensitivity conferred by the mutation” value ([3]; dieldrin, from comparison of effects of lower doses) was 50-100 fold, the mortality at 0.03 mg ([4]; flies carrying the cosmid 6 insert (Rdl^R/Rdl^S), n=221) was 93% and the mortality at 0.03 mg ([4]; siblings without the insert (Rdl^R/Df(3L)29A6), n=214) was 7%. The “susceptibility to 30 μg dieldrin, in words” value ([4]; flies carrying the w+ S insert) was “susceptible”, the “susceptibility to 30 μg dieldrin, in words” value ([4]; siblings without the insert) was “resistant” and the “survival of RR flies” value ([5]; RR flies) was 85%. The “kill of RS and SS genotypes” value ([5]; RS and SS flies) was “kills all RS and SS genotypes” and the “sensitivity of larval central nerve cord of Rdl^R-MD” value [6] was “Insensitivity”.

With `NCc1cc(=O)[nH]o1` [muscimol, muscimol hydrobromide] the “response of mutant channels to GABA and muscimol compared with wild-type channels” value [2] was “apparently identical to the wild-type channels”.

Compound `C=C(C)[C@@H]1[C@H]2OC(=O)[C@@H]1[C@]1(O)C[C@H]3O[C@]34C(=O)O[C@H]2[C@]14C` [PTX, Picrotoxinin] has an inhibition at 1 µM [1, 10] of 73%, an inhibition at 10 µM [1, 10] of 96% and an inhibition at 50 µM [1, 10] of 96%. For the same compound, the inhibition at 1 µM ([1]; read-out: block of the GABA response, 1 μM PTX, wild-type "sensitive" cDNA (FIG. 10b)) was greater than 70%, the “Reduction in GABA response (mean (s.d.))” value ([1]; 1 µM) was 78 (12) % and the “Reduction in GABA response (mean (s.d.))” value ([1]; 10 µM) was 90 (13) %. For the same compound, the “Reduction in GABA response (mean (s.d.))” value ([1]; 50 µM) was 97 (5) %, the “block of the GABA response, in words” value ([2]; 1 μM PTX, Ala to Ser mutant (FIG. 10d)) was “little effect” and the inhibition at 1 µM [2, 10] was 8%. The inhibition at 10 µM [2, 10] was 61%, the inhibition at 50 µM [2, 10] was 75% and the inhibition at 1 µM ([2]; read-out: Reduction in GABA response (mean (s.d.)), Mutant, 1 μM PTX, oocytes with GABA EC50 […] μM, n = 6) was 8%. For the same compound, the “sensitivity of Ala>Ser mutant compared with wild-type” value [2] was “consistently lower sensitivity”, the “Reduction in GABA response (mean (s.d.))” value ([2]; 10 µM) was 48 (6) % and the “Reduction in GABA response (mean (s.d.))” value ([2]; 50 µM) was 56 (6) %. For the same compound, the “reduction in sensitivity induced by the mutation” value ([3]; PTX, mutant vs wild-type oocytes) was “approximately 100 fold”, the reduction in sensitivity [7] was “approximately 100 fold” and the “affinity for PTX of resistant strains relative to susceptibles” value [8] was “one tenth”.

In the case of `N#CS` [thiocyanate], the “permeation through chloride ion channels relative to chloride” value [9] is listed as “seven”.

In the case of `NCCCC(=O)O` [GABA, γ-aminobutyric acid], the “recovery of response to GABA during washing” value ([1]; after PTX or dieldrin, washed with saline 20 min, all experiments (wild-type and mutant)) is reported as “at least 50%”, the “reversal potential of GABA-evoked currents” value ([1]; wild-type mRNA) is reported as -20 to -25 mv and the “maximum current, lower end of range” value [1, 11] is reported as 50 nA. The “maximum current, upper end of range” value [1, 11] was greater than 5 μA and the “response of mutant channels to GABA and muscimol compared with wild-type channels” value [2] was “apparently identical to the wild-type channels”.

With `C[N+]1(C)CCc2cc3c(cc2[C@H]1[C@@H]1OC(=O)c2c1ccc1c2OCO1)OCO3` [bicuculline, (-)-bicuculline methiodide] the “block of GABA-evoked currents by bicuculline” value ([1]; bicuculline 100 μM with 10 μM GABA (FIG. 10a)) was “not blocked”.

— patent publication US6008046A, “Drug and pesticide screening” (priority 1993, dated 1999)
